Assay results from ChEMBL document CHEMBL3507680, “University of Dundee, Gates Library screen for HepG2 cell viability”.

Experiment: Human HepG2 cell viability assay in 384 well format
Type: toxicity, cell-based
Set-up: dose 125 nL, time 70.5 hour; cytotoxicity at 70.5 h: concentration not given beside the values
Conditions: HepG2 cells, read-out: Inhibition

SMILES | cytotoxicity at 70.5 h [%]
CC(C)Oc1cccc(C(=O)C2CCCN(C(=O)c3cncs3)C2)c1 (stereo not given) | -10.7
CC(C)CC(=O)N1CC(=O)c2sc(Nc3ccc(F)cc3F)nc2C1 | 0.35
CS(=O)(=O)NCc1cc(-c2cc(F)cc(F)c2)nc(N2CCCC2)n1 | -12.8
Cc1csc2ncc(-c3ccnc(N4CCC[C@H](C(N)=O)C4)n3)c(=O)n12 | 14.4
CC(C)(C)Nc1nc(-c2cccnc2)c(-c2ccnc(NCCO)n2)s1 | -9.49
Cc1sc2ncc(-c3ccnc(NC4CCN(C)CC4)n3)c(=O)n2c1C | -2.25
CN(c1nccc(-c2cnc3sc(Cl)cn3c2=O)n1)C1CCCCC1 | -3.38
CCNc1nc(-c2cccnc2)c(-c2ccnc(NS(C)(=O)=O)n2)s1 | -8.33
C[C@H](NS(C)(=O)=O)C(=O)NCc1cc(-c2ccco2)n(CC(F)(F)F)n1 | -4.57
Fc1ccc(-c2n[nH]cc2-c2ccnc(NCCN3CCCC3)n2)cc1 | 24
COCCCNc1nccc(-c2c[nH][nH]c2=O)n1 | 22.8
CN1CCN(CC2CC2)C(=O)c2cnc(N3CCCC3)nc21 | 15.9
CN1CCN(CC2CC2)C(=O)c2cnc(N3CCCCC3)nc21 | 30.2
Cc1ncc(-c2ccnc(N3CCN(C)CC3)n2)c(-c2cccnc2)n1 | -13.1
CCOCC(=O)N1CCC(c2nccn2Cc2cscn2)CC1 | 21.4
CCc1ccc(CN(CC)Cc2ccc(S(=O)(=O)NC)cc2)cc1 | -1.74
CN(Cc1nc(-c2cccs2)no1)Cc1nc2c(s1)CCCC2 | -3.38
Cc1cccc(-n2cnnc2CCCN2CCOCC2)c1 | -7.97
CC(C)c1cc(C(=O)N2CC[C@@H](c3ccc4c(c3)OCO4)[C@H](O)C2)[nH]n1 | 3.33
COc1ccc(OC)c(-n2cnnc2COC(C)C)c1 | -0.141
COCCN1CCCC2(CCN(c3nccc4ccccc34)C2)C1=O (stereo not given) | 11.2
C[C@@H]1CN(c2nc(N)nc3c2CCC3)CC[C@@]1(O)C1CCC1 | 4.77

SMILES | cytotoxicity at 70.5 h [%]
OCC1(CCOc2ccccc2)CCN(c2ccc(Cl)cn2)CC1 | -7.7
O=S(=O)(c1cccnc1)N1C[C@@H]2CC[C@H](C1)N(Cc1ccccc1)C2 | -6.7
CN(C)C[C@@H]1CN(C(=O)Cc2ccccc2)C[C@@H]1CO | -3.7
Cc1nc(CCN(C)C(=O)CCNC(=O)c2ccccc2F)no1 | -4.9
CN(Cc1ccccc1)CC1(O)CCCN(Cc2ccc(F)cc2)C1=O (stereo not given) | -3.64
CNc1ncc(CN(C)C(=O)[C@@]23CNC[C@@H]2CN(C(=O)C2CC2)C3)cn1 | -7.16
CN1CCC(c2nnc(CN3CCOCC3)n2C)CC1 | -24.5
C/C=C(\C)CN1CCC2(CCC(=O)N2OCc2ccccc2F)CC1 | -7.98
CSCC[C@@H](CO)n1ccnc1-c1nccn1C | -5.66
COc1ccc(-c2cn([C@H](CO)CC(C)C)nn2)cn1 | -4.51
CC1(C)CNC(=O)c2nc(CCN3CCOCC3)[nH]c2C1 | -7.47
CCC(Nc1cccc(OC)c1)C(=O)NCc1ccc2[nH]c(=O)[nH]c2c1 (stereo not given) | -11.6
CC(C)Cc1ncc2c(n1)CN(c1cc(NCCO)nc(N)n1)C2 | -8.13
CCC(C)N(Cc1ccncc1)Cc1cccc(Cn2cccn2)c1 (stereo not given) | -6.76
COc1ccc(-c2n[nH]cc2CN(C)Cc2ccoc2)c(F)c1 | -1.92
Cc1cc(C(=O)N2CCC3(CC(=O)NC3=O)C2)c(-c2ccccc2)o1 (stereo not given) | 17.4
CN1CCN2CCN(Cc3ccccc3Cn3cccn3)CC2C1 (stereo not given) | -0.968
COc1cccc(-c2n[nH]cc2-c2nc(CN3CCCC3)no2)c1 | 1.58
O=C(N[C@@H]1CCNC[C@H]1O)c1cc(F)cc(Cl)c1 | -1.46
O=C(CN1CCOc2ccccc2C1)NCc1cc2n(n1)CCNC2 | -2.02
COC1CCN(S(=O)(=O)N2CC(c3ccccc3)C(C)(C)C2)CC1 (stereo not given) | 27.1
CC(C)Nc1ccc(-c2ccnc3c2ccn3C)nn1 | 15.5

SMILES | cytotoxicity at 70.5 h [%]
CC(C)(C)c1ncc(C(=O)NCCSc2ccccn2)c(O)n1 | 30.9
O=C(N[C@H]1CC[C@H](O)CC1)c1ccc2nc(-c3ccccc3)cn2c1 | -7.18
COc1ncccc1CN1CCN(c2noc(C(C)C)n2)CC1 | 3.17
Cc1nc(N2C[C@@H](CN3CCCN(C)CC3)[C@@H](CO)C2)c2sccc2n1 | 27.9
O=C1CN(C(=O)CC2c3ccccc3CCc3ccccc32)CCN1 | 2.75
Cc1nccn1CCC1CCN(C2CCC3(CCNCC3)CC2)CC1 | 13.6
CSCC1CCCN(c2ncnc3oc(C)nc23)C1 (stereo not given) | -9.81
COc1cccc(Cn2cc(C3=CCN(CCO)CC3)cn2)c1 | -11
COc1ccccc1N1CCN(C(=O)Cn2nc(C)c(C)c2C)C(C)C1 (stereo not given) | -3.01
CN(C)CCNc1cc(-c2ncccc2O)c2cc[nH]c2n1 | -7.75
c1ccc(CCc2n[nH]c(C3CCC3)n2)cc1 | -2.16
COCCN1CCC(c2nc3c([nH]2)CC(C)(C)CNC3=O)C1 (stereo not given) | 10.3
CCc1cnc(C)nc1NCCN1CCCC(C(N)=O)C1 (stereo not given) | 0.301
CCO[C@H]1C[C@@H](O)C12CCN(C(=O)CC(F)(F)F)CC2 | -7.18
O=C1CC[C@@H](CN(Cc2ccncc2)Cc2nc(CC3CC3)no2)N1 | -5.49
CCN(CCN1CCCCCC1)C(=O)c1cnc(-c2cccnc2)nc1 | -2.81
COc1cccc(-c2n[nH]cc2C(=O)NC(C)CC(=O)O)c1 (stereo not given) | -2.91
CCc1nnc(CN(C)C(=O)CN2CC(c3ccccc3)CC2=O)o1 (stereo not given) | -4.25
O=C1CCN(C(=O)c2csc(-c3ccc(C(F)(F)F)cc3)n2)CCN1 | -8.28
COc1ccccc1CN1C(=O)O[C@@H]2CN(c3ccccn3)C[C@@H]21 | 22.7
Cc1ccc(-c2nc(CN3CCOCC3)no2)cc1N1CCNC1=O | -6.32
CS(=O)(=O)N1C[C@@H]2CC[C@H](C1)N(C(=O)CCc1n[nH]c3c1CCCC3)C2 | 27.3

SMILES | cytotoxicity at 70.5 h [%]
Cc1cc(S(=O)(=O)N2C[C@H](C3CC3)[C@@H](N)C2)c(C)s1 | -6.03
Cc1[nH]c(=O)[nH]c(=O)c1CN1CCCC(CCc2ccccc2F)C1 (stereo not given) | -5.63
CCCOC(=O)N1CCCC2(CCN(Cc3cccc(C#N)c3)C2)C1 (stereo not given) | -6.05
CC(C)N1CCC(C(=O)N(C)CC(=O)c2ccc(O)cc2)CC1 | -17.5
Cc1cc(CN2CCC3(CC2)CC(C(=O)O)N(C(=O)C2CC2)C3)oc1C (stereo not given) | -13.7
CC(=O)N[C@@H]1CN(C2CCN(c3cccc(C)c3C)CC2)C[C@H]1C(C)C | -5.59
CC(C)CN1CCCC1c1ccc(C(=O)Nc2cccnc2)s1 (stereo not given) | 0.0684
CCN(CC)C(=O)[C@@H]1C[C@@H](N)CN1c1nc(N(C)C)nc(C)c1C | 2.56
Cc1cc(C)c(Cn2cncn2)cc1CN1CCC(CN)C1 (stereo not given) | -0.164
N#Cc1cccc(NC2CC(=O)N(CCc3ccc(F)cc3)C2)n1 (stereo not given) | 28.1
Cc1nsc(NC(=O)NC2CCCOC2)n1 (stereo not given) | 23
Cc1nnc(SCCCNc2cc(C3CC3)ncn2)s1 | 22.4
COc1nc2c(cc1C(=O)NCc1noc(Cc3cccs3)n1)CCC2 | -3.41
CC(c1nncn1C)n1cc(-c2cc(CN3CCCC3)cs2)nn1 (stereo not given) | 15.8
Cc1cccc(C)c1OC1CN(C(=O)C2CCCN(C(=O)N(C)C)C2)C1 (stereo not given) | -9.46
COCc1ncc(CN2CCC(Oc3ccc(OC)cc3)CC2)cn1 | -20.2
O=C(c1ccc(S(=O)(=O)NCC(F)F)cc1)N1C[C@H]2CNC[C@H]2C1 | -1.24
COc1ccc(N2CCN(C(=O)[C@@H]3C[C@@H](O)CN3)CC2(C)C)cc1 | 6.62
Cc1cc(C(=O)N2C[C@@H](CN(C)CCN(C)C)[C@@H](CO)C2)nc(C)n1 | 21.1
CC(C)c1nc(CN(C)C(=O)CNC(N)=O)cs1 | -6.72
CCn1c(C)nnc1SCCNC(=O)Cn1cnc2ccccc2c1=O | -4.84
CN(Cc1nc(CC2CC2)no1)CC1Cc2ccccc2O1 (stereo not given) | -6.88

SMILES | cytotoxicity at 70.5 h [%]
O=C(NCc1cnn2cccnc12)C1CC2(CCNCC2)CN1 (stereo not given) | -4.05
CC(C)n1cnnc1CN(C)C(=O)c1cccnc1O | -4.11
Cn1ccnc1C1CCN(S(=O)(=O)c2ccc3c(c2)OCCO3)CC1 | 9.02
CN(C)c1nc2c(c(N3CCC(O)CC3)n1)CN(CC1CCOC1)CC2 (stereo not given) | -3.69
CCC(Nc1nc(CCN)nc2ccccc12)c1cc(C)ccn1 (stereo not given) | -5.71
Cc1ncccc1Oc1ncnc(N2CCC3(CCCO3)CC2)c1C | -7.69
Cc1nn(C)cc1-c1ccnc(N2CCN(c3ccccc3)C(=O)C2)n1 | -3.19
CN(C)C(C(=O)NCC1(O)CCCCC1)c1cccc(F)c1 (stereo not given) | -2.16
COc1ccc(C(=O)N2C[C@@H](CN3CCCC3)[C@@H](CO)C2)c(C)c1 | -8.12
Cc1noc(C)c1CN(Cc1cccnc1)C1CN2CCC1CC2 (stereo not given) | 25
CN(C)S(=O)(=O)N1CC[C@]2(O)CCN(CCCc3cccnc3)C[C@@H]2C1 | 1.31
COCCN(C)Cc1nc(-c2cccc(F)c2F)oc1C | -11.3
FC(F)C(F)(F)COCc1ncnn1-c1ccc2c(c1)OCO2 | 6.96
CN(C)c1nc2c(c(N3CCCC4(CC3)CNC(=O)O4)n1)CCCC2 (stereo not given) | -1.83
Cn1ccnc1C1CCN(CCC2CCOC2)CC1 (stereo not given) | 14.8
CCCc1nc(C(=O)N2C[C@H](CO)C[C@H](CN3CCOCC3)C2)cs1 | -8.72
C1CCc2nnc(CNc3nc(C4CC4)nc4c3CCNCC4)n2CC1 | -5.38
Cc1cccc(C)c1OC1CN(C(=O)C2CCN(C(=O)N(C)C)CC2)C1 | 29.8
CNC(=O)C1CCN(c2cc(C3CCNCC3)nc(C)n2)C1 (stereo not given) | -19.2
CCN1Cc2nc(OC)c(CNC(=O)C3CCS(=O)(=O)CC3)cc2C1=O | -2.6
Cc1cccc(SC2CCN(C(=O)CCCn3cnnn3)CC2)c1 | -15.1
Cc1ccn(CCNc2ncnc3c2CCN(Cc2ncc[nH]2)CC3)n1 | -8.65
